10 compounds from the supplement of paper PMC10627819 can be followed below.

Holding throughout (experiment): Bliss interaction score (quartile over a dose matrix) (fitness difference); higher = more antagonism (negative = synergy)
The test system of one assay is S. aureus DSM 20231. In a few lines:
(§1)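 The Bliss score subtracts expected fitness, the product of the single-drug fitness values, from observed fitness. Fitness is plate-normalised OD595 at entry into stationary phase, relative to the robust no-drug mean and capped at 1, with single-drug fitness inferred from combinations. Summaries are quartiles over technical, biological and donor/recipient replicates.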

The next assay deals with B. subtilis 168. The gist of the method:
as §1

The subject of a further assay is S. aureus Newman. In a few lines: as §1
The next assay has as its system S. pneumoniae D39V. In a few lines:
as §1
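Also: first quartile when negative (synergy) and third quartile when positive (antagonism).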

In the case of `CO[C@@]12[C@H](COC(N)=O)C3=C(C(=O)C(C)=C(N)C3=O)N1C[C@@H]1N[C@@H]12` [MitomycinC] + COc1cc(Cc2cnc(N)nc2N)cc(OC)c1OC [Trimethoprim], the Bliss interaction score in the assay on S. aureus DSM 20231 is -0.102; in the assay with B. subtilis 168 it was -0.108; with S. aureus Newman, -0.127; in the assay with S. pneumoniae D39V, -0.141.

For the compound `CO[C@@]12[C@H](COC(N)=O)C3=C(C(=O)C(C)=C(N)C3=O)N1C[C@@H]1N[C@@H]12` [MitomycinC] + CN[C@H](CC(C)C)C(=O)N[C@H]1C(=O)N[C@@H](CC(N)=O)C(=O)N[C@H]2C(=O)N[C@H]3C(=O)N[C@H](C(=O)N[C@H](C(=O)O)c4cc(O)cc(O)c4-c4cc3ccc4O)[C@H](O)c3ccc(c(Cl)c3)Oc3cc2cc(c3O[C@@H]2O[C@H](CO)[C@@H](O)[C@H](O)[C@H]2O[C@H]2C[C@](C)(N)[C@H](O)[C@H](C)O2)Oc2ccc(cc2Cl)[C@H]1O [Vancomycin], the Bliss interaction score was 0.0497 with S. aureus DSM 20231, 0.0157 in the assay on B. subtilis 168, -0.0526 with S. aureus Newman and 0.124 in the assay on S. pneumoniae D39V.

On to `CC(=O)NC[C@H]1CN(c2ccc(N3CCOCC3)c(F)c2)C(=O)O1` [Linezolid] + CC[C@H]1OC(=O)[C@H](C)C(=O)[C@H](C)[C@@H](O[C@@H]2O[C@H](C)C[C@H](N(C)C)[C@H]2O)[C@](C)(OC)C[C@@H](C)C(=O)[C@H](C)[C@H]2N(CCCCn3cnc(-c4cccnc4)c3)C(=O)O[C@]12C [Telithromycin], for which the Bliss interaction score in the assay with S. aureus DSM 20231 was -0.133; in the assay on B. subtilis 168 it was -0.143; with S. aureus Newman, -0.074; with S. pneumoniae D39V it was -0.0921.

As for `CC[C@H]1OC(=O)[C@H](C)[C@@H](O[C@H]2C[C@@](C)(OC)[C@@H](O)[C@H](C)O2)[C@H](C)[C@@H](O[C@@H]2O[C@H](C)C[C@H](N(C)C)[C@H]2O)[C@](C)(O)C[C@@H](C)C(=O)[C@H](C)[C@@H](O)[C@]1(C)O` [Erythromycin] + CCN(CC)CCOC(=O)c1ccc(N)cc1 [Procaine], the Bliss interaction score was -0.0573 in the assay with S. aureus DSM 20231, -0.0671 with B. subtilis 168, 0.0663 in the assay on S. aureus Newman and -0.048 in the assay on S. pneumoniae D39V.

As to `CC[C@H]1OC(=O)[C@H](C)[C@@H](O[C@H]2C[C@@](C)(OC)[C@@H](O)[C@H](C)O2)[C@H](C)[C@@H](O[C@@H]2O[C@H](C)C[C@H](N(C)C)[C@H]2O)[C@](C)(O)C[C@@H](C)C(=O)[C@H](C)[C@@H](O)[C@]1(C)O` [Erythromycin] + CCC[C@@H]1C[C@@H](C(=O)N[C@@H]([C@H]2O[C@H](SC)[C@H](O)[C@@H](O)[C@H]2O)[C@@H](C)O)N(C)C1 [Lincomycin], the Bliss interaction score in the assay on S. aureus DSM 20231 is -0.0609; with B. subtilis 168, 0.107; with S. aureus Newman, -0.1; in the assay with S. pneumoniae D39V, 0.0856.

Consider `CO[C@@]12[C@H](COC(N)=O)C3=C(C(=O)C(C)=C(N)C3=O)N1C[C@@H]1N[C@@H]12` [MitomycinC] + CC[C@H]1OC(=O)[C@H](C)C(=O)[C@H](C)[C@@H](O[C@@H]2O[C@H](C)C[C@H](N(C)C)[C@H]2O)[C@](C)(OC)C[C@@H](C)C(=O)[C@H](C)[C@H]2N(CCCCn3cnc(-c4cccnc4)c3)C(=O)O[C@]12C [Telithromycin], for which the Bliss interaction score with S. aureus DSM 20231 is -0.0567; in the assay with B. subtilis 168, 0.0694; in the assay on S. aureus Newman, -0.0269; in the assay on S. pneumoniae D39V it was -0.102.

For the compound `CC[C@H](C)[C@H](N)C1=N[C@H](C(=O)N[C@@H](CC(C)C)C(=O)N[C@H](CCC(=O)O)C(=O)N[C@H](C(=O)N[C@H]2CCCCNC(=O)[C@H](CC(N)=O)NC(=O)[C@@H](CC(=O)O)NC(=O)[C@H](Cc3cnc[nH]3)NC(=O)[C@@H](Cc3ccccc3)NC(=O)[C@H]([C@@H](C)CC)NC(=O)[C@@H](CCCN)NC2=O)[C@@H](C)CC)CS1` [Bacitracin] + CN(C)[C@@H]1C(O)=C(C(N)=O)C(=O)[C@@]2(O)C(O)=C3C(=O)c4c(O)ccc(Cl)c4[C@@](C)(O)[C@H]3C[C@@H]12 [Clortetracycline], the Bliss interaction score with S. aureus DSM 20231 (main component drawn) is 0.0294; in the assay on B. subtilis 168 (main component drawn), -0.12; in the assay on S. aureus Newman (main component drawn), -0.0827; in the assay on S. pneumoniae D39V (main component drawn), 0.135.

Regarding `CC[C@H]1OC(=O)[C@H](C)[C@@H](O[C@H]2C[C@@](C)(OC)[C@@H](O)[C@H](C)O2)[C@H](C)[C@@H](O[C@@H]2O[C@H](C)C[C@H](N(C)C)[C@H]2O)[C@](C)(O)C[C@@H](C)C(=O)[C@H](C)[C@@H](O)[C@]1(C)O` [Erythromycin] + CN[C@@H]1[C@H](O[C@H]2[C@H](O[C@H]3[C@H](O)[C@@H](O)[C@H](N=C(N)N)[C@@H](O)[C@@H]3N=C(N)N)O[C@@H](C)[C@]2(O)C=O)O[C@@H](CO)[C@H](O)[C@H]1O [Streptomycin], the Bliss interaction score in the assay with S. aureus DSM 20231 was 0.0256; with B. subtilis 168, 0.0844; in the assay on S. aureus Newman it was -0.0695; with S. pneumoniae D39V it was -0.0481.

With `CN[C@H](CC(C)C)C(=O)N[C@H]1C(=O)N[C@@H](CC(N)=O)C(=O)N[C@H]2C(=O)N[C@H]3C(=O)N[C@H](C(=O)N[C@H](C(=O)O)c4cc(O)cc(O)c4-c4cc3ccc4O)[C@H](O[C@H]3C[C@](C)(N)[C@@H](O)[C@H](C)O3)c3ccc(c(Cl)c3)Oc3cc2cc(c3O[C@@H]2O[C@H](CO)[C@@H](O)[C@H](O)[C@H]2O[C@H]2C[C@](C)(NCc3ccc(-c4ccc(Cl)cc4)cc3)[C@@H](O)[C@H](C)O2)Oc2ccc(cc2Cl)[C@H]1O` [Oritavancin] + CN(N=O)C(=O)N[C@@H](C=O)[C@@H](O)[C@H](O)[C@H](O)CO [Streptozotocin], the Bliss interaction score is -0.0564 with S. aureus DSM 20231, -0.0355 in the assay with B. subtilis 168, -0.063 in the assay with S. aureus Newman and -0.0337 with S. pneumoniae D39V.

As for `CO[C@@]12[C@H](COC(N)=O)C3=C(C(=O)C(C)=C(N)C3=O)N1C[C@@H]1N[C@@H]12` [MitomycinC] + CCN(CC)CCOC(=O)c1ccc(N)cc1 [Procaine], the Bliss interaction score was determined as 0.0322 in the assay on S. aureus DSM 20231, 0.0575 in the assay on B. subtilis 168, 0.0275 in the assay with S. aureus Newman and 0.0639 in the assay with S. pneumoniae D39V.
